# Reference: ChEMBL document CHEMBL1201862, “PubChem BioAssay data set” (2004)
#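 Cultured in 96-well plates, cells were exposed to test compound for 48 hours across five concentrations. At the GI50, growth is halved.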 Calls of active or inactive are those of the source. No stated cut-off is given here; in the data, active = GI50 up to about 1.1 µM and inactive = higher.
# Assays:
# Assay in all cases: DTP human tumour cell line panel, 48 h
# [1] = test system: 786-0
# [2] = test system: A498
# [3] = test system: CAKI-1
# [4] = test system: HCT-15
# [5] = test system: HT-29
# [6] = test system: IGROV-1
# [7] = test system: M14
# [8] = test system: NCI-H23
# [9] = test system: OVCAR-3
# [10] = test system: OVCAR-8
# [11] = test system: RPMI-8226
# [12] = test system: SF-295
# [13] = test system: SF-539
# [14] = test system: SN12C
# [15] = test system: SR
# [16] = test system: TK-10
# [17] = test system: U-251
# [18] = test system: UACC-62
# [19] = test system: PC-3
# [20] = test system: MCF7
SMILES,GI50 [1],GI50 [2],GI50 [3],GI50 [4] [µM],GI50 [5],GI50 [6],GI50 [7],GI50 [8],GI50 [9],GI50 [10],GI50 [11],GI50 [12],GI50 [13],GI50 [14],GI50 [15],GI50 [16],GI50 [17],GI50 [18],GI50 [19],GI50 [20]
N[C@H]1C2C3CC4C5CC(C42)C1(c1ccccc1)C53 (some centres not stated),> 100 µM (inactive),> 100 µM (inactive),> 100 µM (inactive),> 100,62.5 µM (inactive),> 100 µM (inactive),> 100 µM (inactive),> 100 µM (inactive),> 100 µM (inactive),> 100 µM (inactive),> 100 µM (inactive),> 100 µM (inactive),> 100 µM (inactive),> 100 µM (inactive),> 100 µM (inactive),> 100 µM (inactive),> 100 µM (inactive),> 100 µM (inactive),–,–
Cc1ccc(Sc2ccccc2C23OC(C)(C4C(=O)N(c5ccccc5)C(=O)C42)N(C)C3=O)cc1 (configuration not stated),96.6 µM (inactive),86.9 µM (inactive),> 100 µM (inactive),> 100,> 100 µM (inactive),> 100 µM (inactive),> 100 µM (inactive),> 100 µM (inactive),> 100 µM (inactive),> 100 µM (inactive),–,> 100 µM (inactive),> 100 µM (inactive),90.2 µM (inactive),> 100 µM (inactive),> 100 µM (inactive),> 100 µM (inactive),88.5 µM (inactive),> 100 µM (inactive),–
CN(C)CS/C(N)=N\C(O)C(Cl)(Cl)Cl (configuration not stated),> 100 µM (inactive),> 100 µM (inactive),> 100 µM (inactive),> 100,> 100 µM (inactive),> 100 µM (inactive),> 100 µM (inactive),> 100 µM (inactive),> 100 µM (inactive),> 100 µM (inactive),–,> 100 µM (inactive),–,> 100 µM (inactive),82.2 µM (inactive),> 100 µM (inactive),> 100 µM (inactive),> 100 µM (inactive),> 100 µM (inactive),–
CNc1nnc(CNc2ccc(-c3nnc(NC)n3N)cc2)n1N,> 100 µM (inactive),> 100 µM (inactive),> 100 µM (inactive),> 100,> 100 µM (inactive),> 100 µM (inactive),> 100 µM (inactive),> 100 µM (inactive),> 100 µM (inactive),> 100 µM (inactive),–,> 100 µM (inactive),> 100 µM (inactive),> 100 µM (inactive),–,> 100 µM (inactive),> 100 µM (inactive),–,> 100 µM (inactive),> 100 µM (inactive)
Oc1c(NCn2nc(CCCCCCCCc3nn(CNc4ccc5ccccc5c4O)c(=S)o3)oc2=S)ccc2ccccc12,63.2 µM (inactive),> 100 µM (inactive),> 100 µM (inactive),35.6,73.6 µM (inactive),50.2 µM (inactive),34.8 µM (inactive),97.5 µM (inactive),–,–,46.8 µM (inactive),33.7 µM (inactive),–,> 100 µM (inactive),–,68.1 µM (inactive),86.5 µM (inactive),68.4 µM (inactive),> 100 µM (inactive),67.6 µM (inactive)
CC(=O)O[C@H]1C[C@](C)(O)[C@@]23CC([C@@H](OC(=O)C(C)(C)O)[C@@H](OC(C)=O)C2(COC(=O)c2ccccc2)[C@H]1OC(C)=O)C(C)(C)O3 (some centres not stated),> 100 µM (inactive),> 100 µM (inactive),> 100 µM (inactive),> 100,> 100 µM (inactive),> 100 µM (inactive),55.5 µM (inactive),> 100 µM (inactive),78.9 µM (inactive),> 100 µM (inactive),23.6 µM (inactive),84.3 µM (inactive),> 100 µM (inactive),> 100 µM (inactive),–,> 100 µM (inactive),33.4 µM (inactive),> 100 µM (inactive),44 µM (inactive),50.9 µM (inactive)
COc1cccc2cc(C(N)=O)c(=N)oc12,31.7 µM (inactive),> 100 µM (inactive),39.4 µM (inactive),52.6,48.4 µM (inactive),35.5 µM (inactive),46.6 µM (inactive),48.4 µM (inactive),36.9 µM (inactive),50 µM (inactive),90.2 µM (inactive),–,41.5 µM (inactive),39.4 µM (inactive),58.2 µM (inactive),–,81.5 µM (inactive),31.3 µM (inactive),65.3 µM (inactive),–
CCOC(=O)C1(C/C=C\CBr)CCCC1=O (configuration not stated),32.3 µM (inactive),> 100 µM (inactive),48.8 µM (inactive),26.9,29.3 µM (inactive),24.9 µM (inactive),21.7 µM (inactive),23.8 µM (inactive),–,30.1 µM (inactive),–,60 µM (inactive),24.6 µM (inactive),18.4 µM (inactive),–,13.2 µM (inactive),20.1 µM (inactive),15.7 µM (inactive),36.7 µM (inactive),11.5 µM (inactive)
CCOC(=O)c1c(N2CCCC2)nsc1Nc1ccccc1,> 100 µM (inactive),> 100 µM (inactive),> 100 µM (inactive),> 100,> 100 µM (inactive),> 100 µM (inactive),> 100 µM (inactive),> 100 µM (inactive),–,> 100 µM (inactive),> 100 µM (inactive),> 100 µM (inactive),> 100 µM (inactive),> 100 µM (inactive),> 100 µM (inactive),> 100 µM (inactive),–,–,> 100 µM (inactive),–
C/N=N/N(C)C(=O)NC,> 100 µM (inactive),> 100 µM (inactive),> 100 µM (inactive),> 100,> 100 µM (inactive),> 100 µM (inactive),> 100 µM (inactive),> 100 µM (inactive),> 100 µM (inactive),> 100 µM (inactive),> 100 µM (inactive),> 100 µM (inactive),> 100 µM (inactive),> 100 µM (inactive),> 100 µM (inactive),> 100 µM (inactive),> 100 µM (inactive),> 100 µM (inactive),–,–
S=c1sc2ccccc2n1CN1CCN(Cc2ccccc2)CC1,> 100 µM (inactive),> 100 µM (inactive),> 100 µM (inactive),> 100,> 100 µM (inactive),> 100 µM (inactive),> 100 µM (inactive),> 100 µM (inactive),> 100 µM (inactive),> 100 µM (inactive),> 100 µM (inactive),> 100 µM (inactive),> 100 µM (inactive),> 100 µM (inactive),–,> 10 µM (inactive),> 100 µM (inactive),> 100 µM (inactive),> 100 µM (inactive),> 100 µM (inactive)
N=C(N)N1CCC(N2CCOCC2)CC1,> 100 µM (inactive),> 100 µM (inactive),–,> 100,> 100 µM (inactive),> 100 µM (inactive),> 100 µM (inactive),> 100 µM (inactive),–,> 100 µM (inactive),> 100 µM (inactive),> 100 µM (inactive),> 100 µM (inactive),> 100 µM (inactive),> 100 µM (inactive),> 100 µM (inactive),> 100 µM (inactive),> 100 µM (inactive),–,> 100 µM (inactive)
COC1=CC(=O)C2[C@H]3Cc4ccccc4[C@H]3C2(C)C1=O (some centres not stated),> 100 µM (inactive),> 100 µM (inactive),> 100 µM (inactive),94.6,> 100 µM (inactive),> 100 µM (inactive),> 100 µM (inactive),> 100 µM (inactive),> 100 µM (inactive),> 100 µM (inactive),> 100 µM (inactive),> 100 µM (inactive),> 100 µM (inactive),–,70.3 µM (inactive),> 100 µM (inactive),> 100 µM (inactive),> 100 µM (inactive),–,–
COC(=O)[C@@H]1C[C@H](c2ccc(OC)c(OC)c2)OC1=O.COC(=O)[C@H]1C[C@H](c2ccc(OC)c(OC)c2)OC1=O,> 100 µM (inactive),> 100 µM (inactive),> 100 µM (inactive),> 100,> 100 µM (inactive),> 100 µM (inactive),> 100 µM (inactive),> 100 µM (inactive),> 100 µM (inactive),> 100 µM (inactive),> 100 µM (inactive),> 100 µM (inactive),> 100 µM (inactive),> 100 µM (inactive),> 100 µM (inactive),> 100 µM (inactive),> 100 µM (inactive),> 100 µM (inactive),–,–
COc1ccc(Nc2nc(N)c(C(=O)c3ccc(Cl)cc3)s2)cc1,< 0.01 µM (active),< 0.01 µM (active),< 0.01 µM (active),0.0439,< 0.0108 µM (active),0.0655 µM (active),< 0.01 µM (active),< 0.0152 µM (active),< 0.01 µM (active),< 0.0126 µM (active),< 0.01 µM (active),< 0.01 µM (active),< 0.01 µM (active),0.307 µM (active),–,3.61 µM (inactive),< 0.01 µM (active),< 0.01 µM (active),< 0.01 µM (active),0.356 µM (active)
Nc1nc(F)nc2c1ncn2C1OC(CO)C(O)C1O (configuration not stated),38.1 µM (inactive),> 60.3 µM (inactive),34.6 µM (inactive),> 75,> 100 µM (inactive),> 100 µM (inactive),8.53 µM (inactive),13.3 µM (inactive),> 100 µM (inactive),4.61 µM (inactive),> 100 µM (inactive),> 100 µM (inactive),> 100 µM (inactive),3.89 µM (inactive),–,> 100 µM (inactive),> 81.5 µM (inactive),58.6 µM (inactive),30.5 µM (inactive),57.7 µM (inactive)
